In the assay the test system is CD15+CD11b- neutrophil precursors. Nature of the assay: single cell proliferation assay of sorted neutrophil precursors in hematopoietic growth factors. Format: cell-based, human. The following applies: after 10 days in culture; for Percent of Total Cells Evaluated, 0 Cells/Wells / Percent of Total Cells Evaluated, 1-4 Cells/Well / Percent of Total Cells Evaluated, 5-8 Cells/Well / Percent of Total Cells Evaluated, 9-16 Cells/Well / Percent of Total Cells Evaluated, 17-32 Cells/Well / Percent of Total Cells Evaluated, >32 Cells/Well: Table V, individual growth factors, neutrophil precursors. As for the experimental part: Apheresis samples were collected after peripheral blood counts reached 1000/ul from patients mobilized with G-CSF (10 ug/kg/day) following cyclophosphamide/VP16 chemotherapy. Apheresis was performed using the CS-3000® blood cell separator (Fenwal Division, Baxter Healthcare, Deerfield, Ill.). Bone marrow was collected from normal volunteers.
The assays were performed by sorting single cells based upon expression of CD15 and CD11b by flow cytometry into multiwell plates containing 10 ul of culture media with various growth factor combinations. […] The same studies were performed on fresh bone marrow for comparison. Plates containing the sorted cells were incubated at 37° C. and the number of cells in each well were counted on days 1, 3 and 10. For further characterization of antigenic expression, cells at varying timepoints of culture were stained with the following antigenic combinations: FITC-CD15/PE-CD11b, FITC-CD71/PE-CD45RA,and FITC-CD67/PE-CD34.
To assess the absolute requirement of growth factors on the proliferation of neutrophil precursors, single cells were plated in the presence or absence of all four growth factors described above. The single cell cultures were incubated for an additional 10 days and then each well was scored for the number of total cells. The wells were categorized according to the number of cells per well.
To determine which single growth factor or combination of growth factors would support proliferation of neutrophil precursors, various combinations of the above growth factors were tested in the single cell proliferation assay.

The record followed here is patent publication US5955357A, “In-vitro-derived human neutrophil precursor cells” (Nexell Therapeutics Inc., priority 1994, dated 1999).

As to “GM-CSF: hematopoietic growth factor, granulocyte and macrophage colony-stimulating factor”, the “Percent of Total Cells Evaluated, 0 Cells/Wells” value (“Percent … 0 Cells/Wells” for short) is 33%; the “Percent of Total Cells Evaluated, 1-4 Cells/Well” value (“Percent … 1-4 Cells/Well” below) is recorded as 44%; the “Percent of Total Cells Evaluated, 5-8 Cells/Well” value (“Percent … 5-8 Cells/Well” below) is listed as 12%; the “Percent of Total Cells Evaluated, 9-16 Cells/Well” value (“Percent … 9-16 Cells/Well” below) is reported as 6%. Besides, the “Percent of Total Cells Evaluated, 17-32 Cells/Well” value (“Percent … 17-32 Cells/Well” for short) is 4% and the “Percent of Total Cells Evaluated, >32 Cells/Well” value (shortened to “Percent … >32 Cells/Well”) is 1%.
As for “SCF: hematopoietic growth factor, stem cell factor”, the “Percent … 0 Cells/Wells” value was determined as 25%; the “Percent … 1-4 Cells/Well” value was determined as 52%; the “Percent … 5-8 Cells/Well” value was determined as 13%; the “Percent … 9-16 Cells/Well” value is listed as 8%. Further, the “Percent … 17-32 Cells/Well” value amounted to 2% and the “Percent … >32 Cells/Well” value is 1%.

B1: G-CSF: hematopoietic growth factor, granulocyte colony-stimulating factor (protein, UniProt P09919 31-207, looked up)
Granulocyte …: TPLGPASSLPQSFLLKCLEQVRKIQGDGAALQEKLVSECATYKLCHPEELVLLGHSLGIPWAPLSSCPSQALQLAGCLSQLHSGLFLYQGLLQALEGISPELGPTLDTLQLDVADFATTIWQQMEELGMAPALQPTQGAMPAFASAFQRRAGGVLVASHLQSFLEVSYRVLRHLAQP
With B1, the “Percent … 0 Cells/Wells” value is recorded as 22%; the “Percent … 1-4 Cells/Well” value was 40%; the “Percent … 5-8 Cells/Well” value came to 10%; the “Percent … 9-16 Cells/Well” value is 10%. Further, the “Percent … 17-32 Cells/Well” value turned out to be 6% and the “Percent … >32 Cells/Well” value is reported as 13%. In addition, under “result in words”, the “fraction of proliferating neutrophil precursors and extent of proliferation, compared with other growth factors” value is “enhances proliferation to a greater extent then either GM-CSF, IL-3 or SCF alone”.
